One cell line from the supplement of paper PMC10307832 can be followed below.

What all share (assay): relative viability (nuclei count vs DMSO), 5 days (fraction); higher = more cells survive
Compound in assay [1]: COc1ncc(-c2ccc3nccc(-c4ccnnc4)c3c2)cc1NS(=O)(=O)c1ccc(F)cc1F [Omipalisib] + NC(=O)Nc1cc(-c2cccc(F)c2)sc1C(=O)N[C@H]1CCCNC1 [AZD7762] (partner 0.2 µM)
The essentials:
(§1)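 Each reported value is a median over duplicate plates. It expresses relative viability: treated-well nuclei count divided by vehicle-well nuclei count. Lung cancer cell lines in 1536-well plates were dosed by pin tool a day after seeding, alone with one drug or with a fixed anchor-drug dose plus five library-drug doses (not always all listed) in √10 steps, and nuclei were counted after 5 days.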

Compound in assay [2]: COc1ncc(-c2ccc3nccc(-c4ccnnc4)c3c2)cc1NS(=O)(=O)c1ccc(F)cc1F [Omipalisib] + COc1cccc2cc(-c3nc([C@H]4CC[C@H](C(=O)O)CC4)n4ncnc(N)c34)[nH]c12 [OSI-027] (partner 0.5 µM)
The method in brief: as §1

Compound in assay [3]: COc1ncc(-c2ccc3nccc(-c4ccnnc4)c3c2)cc1NS(=O)(=O)c1ccc(F)cc1F [Omipalisib] + O=C(c1cc(Cc2n[nH]c(=O)c3ccccc23)ccc1F)N1CCN(C(=O)C2CC2)CC1 [Olaparib] (partner 8 µM)
The method in brief: as §1

Compound in assay [4]: COc1ncc(-c2ccc3nccc(-c4ccnnc4)c3c2)cc1NS(=O)(=O)c1ccc(F)cc1F [Omipalisib] + C[C@@H](Oc1cc(-c2cnn(C3CCNCC3)c2)cnc1N)c1c(Cl)ccc(F)c1Cl [Crizotinib] (partner 1 µM)
The method in brief: as §1

Compound in assay [5]: COc1ncc(-c2ccc3nccc(-c4ccnnc4)c3c2)cc1NS(=O)(=O)c1ccc(F)cc1F [Omipalisib] + CCNC(=O)c1noc(-c2cc(C(C)C)c(O)cc2O)c1-c1ccc(CN2CCOCC2)cc1 [Luminespib] (partner 0.01 µM)
The essentials: as §1

Compound in assay [6]: COc1ncc(-c2ccc3nccc(-c4ccnnc4)c3c2)cc1NS(=O)(=O)c1ccc(F)cc1F [Omipalisib]
The method in brief:
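Lung cancer cell lines in 1536-well plates were exposed by pinning to five library-drug doses (not always all listed) √10 apart, following an overnight hold at 37 °C. MetaXpress counted Hoechst-stained nuclei from 4× images taken after 5 days without medium change. Viability is the median ratio of treated-well to vehicle-well nuclei across plates. Plates required control CV below 25% and at least one doubling.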

Take NCI-H441: the relative viability came to 1.02 in assay [1] (first compound 0.0003 µM); 1.02 in assay [1] (first compound 0.003 µM); 0.717 in assay [1] (first compound 0.03 µM); 0.642 in assay [2] (first compound 0.0003 µM); 0.35 in assay [2] (first compound 0.003 µM); 0.26 in assay [2] (first compound 0.03 µM). Moreover, the relative viability worked out at 0.55 in assay [3] (first compound 0.0003 µM); 0.321 in assay [3] (first compound 0.003 µM); 0.37 in assay [3] (first compound 0.03 µM); 0.462 in assay [4] (first compound 0.0003 µM); 0.32 in assay [4] (first compound 0.003 µM); 0.367 in assay [4] (first compound 0.03 µM). In addition, the relative viability in assay [5] (first compound 0.0003 µM) came to 0.207; in assay [5] (first compound 0.003 µM), 0.28; in assay [5] (first compound 0.03 µM), 0.234; in assay [6] (0.0003 µM), 0.832; in assay [6] (0.003 µM), 0.574; in assay [6] (0.03 µM) it was 0.427.
